# Results as given in ChEMBL document CHEMBL1201862, “PubChem BioAssay data set” (2004).
# Activity calls are given as the source filed them.
# Experiments:
# Genome polyprotein = Genome polyprotein (dengue virus type 2, UniProt P29990); experiment: flavivirus cap methylation enzyme inhibition – biochemical, confirmation dose response, primary screen (AID 588689); type: functional
# Vero = experiment: cells; type: functional; settings: Chlorocebus sabaeus
# [1] = viability of HCT116 lacking mutant beta-catenin – cell-based, human colon tumor, dose response (AID 1045); type: functional;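 also: HCT116 colon tumor cells with beta catenin knocked out; cells exposed to compound for 60 hours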
# INS1 = experiment: INS-1E survival protection against cytokine death – cell-based, luminescence, retest, dose response (AID 449756); type: functional; settings: Rattus norvegicus;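 also: cell death triggered by IL-1 beta plus TNF-alpha plus IFN-gamma mixture; protective hits raise ATP signal compared with cytokine alone wells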
# [2] = viability of PTEN-deleted HCT116 cells – cell-based, HCT116 PTEN knockout, dose response (AID 1047); type: functional;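 also: HCT116 colon tumor cells with PTEN knocked out; cells exposed to compound for 60 hours before readout; potency for loss of cell viability measured by luminescence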
# [3] = Luminescence Cell-Based Dose Retest to Confirm Inhibitors of Cancer Stem Cells. [Related pubchem assays (depositor defined):AID2717, AID2721]; type: functional; settings: Homo sapiens
# [4] = target: FAD-linked sulfhydryl oxidase ALR (Homo sapiens, UniProt P55789); experiment: ALR-catalysed DTT oxidation blockers – biochemical, H2O2 detection, luminescence, cherry-pick, dose response (AID 493248)
# [5] = viability loss in HeLa cells – cytotoxicity control for MgcRacGAP inhibitor project, dose response (AID 624300); type: functional
# [6] = target: Glyceraldehyde-3-phosphate dehydrogenase (Homo sapiens, UniProt P04406)
# Estrogen receptor beta = Estrogen receptor beta (Homo sapiens, UniProt Q92731);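 also: recombinant ER-beta bound to coactivator SRC1 peptide in presence of estradiol agonist; inhibitors block coactivator peptide binding and lower the FRET signal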
# Sequence of Estrogen receptor beta (Q92731 whole entry): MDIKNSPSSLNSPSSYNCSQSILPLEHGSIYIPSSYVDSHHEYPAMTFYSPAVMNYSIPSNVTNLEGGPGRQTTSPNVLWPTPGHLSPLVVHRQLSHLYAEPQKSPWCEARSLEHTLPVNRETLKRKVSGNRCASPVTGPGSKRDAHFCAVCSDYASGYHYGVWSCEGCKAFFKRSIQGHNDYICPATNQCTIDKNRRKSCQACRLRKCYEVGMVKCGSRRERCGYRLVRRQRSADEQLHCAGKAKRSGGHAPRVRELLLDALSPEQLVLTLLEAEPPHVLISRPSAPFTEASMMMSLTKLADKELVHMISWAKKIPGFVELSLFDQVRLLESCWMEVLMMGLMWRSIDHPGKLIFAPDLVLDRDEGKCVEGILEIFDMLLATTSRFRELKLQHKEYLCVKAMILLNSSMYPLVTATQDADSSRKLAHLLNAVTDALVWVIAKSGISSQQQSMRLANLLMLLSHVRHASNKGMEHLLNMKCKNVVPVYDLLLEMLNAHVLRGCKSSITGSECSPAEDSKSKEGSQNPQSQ
# Sequence of Genome polyprotein (P29990 2492-3391 limits assumed): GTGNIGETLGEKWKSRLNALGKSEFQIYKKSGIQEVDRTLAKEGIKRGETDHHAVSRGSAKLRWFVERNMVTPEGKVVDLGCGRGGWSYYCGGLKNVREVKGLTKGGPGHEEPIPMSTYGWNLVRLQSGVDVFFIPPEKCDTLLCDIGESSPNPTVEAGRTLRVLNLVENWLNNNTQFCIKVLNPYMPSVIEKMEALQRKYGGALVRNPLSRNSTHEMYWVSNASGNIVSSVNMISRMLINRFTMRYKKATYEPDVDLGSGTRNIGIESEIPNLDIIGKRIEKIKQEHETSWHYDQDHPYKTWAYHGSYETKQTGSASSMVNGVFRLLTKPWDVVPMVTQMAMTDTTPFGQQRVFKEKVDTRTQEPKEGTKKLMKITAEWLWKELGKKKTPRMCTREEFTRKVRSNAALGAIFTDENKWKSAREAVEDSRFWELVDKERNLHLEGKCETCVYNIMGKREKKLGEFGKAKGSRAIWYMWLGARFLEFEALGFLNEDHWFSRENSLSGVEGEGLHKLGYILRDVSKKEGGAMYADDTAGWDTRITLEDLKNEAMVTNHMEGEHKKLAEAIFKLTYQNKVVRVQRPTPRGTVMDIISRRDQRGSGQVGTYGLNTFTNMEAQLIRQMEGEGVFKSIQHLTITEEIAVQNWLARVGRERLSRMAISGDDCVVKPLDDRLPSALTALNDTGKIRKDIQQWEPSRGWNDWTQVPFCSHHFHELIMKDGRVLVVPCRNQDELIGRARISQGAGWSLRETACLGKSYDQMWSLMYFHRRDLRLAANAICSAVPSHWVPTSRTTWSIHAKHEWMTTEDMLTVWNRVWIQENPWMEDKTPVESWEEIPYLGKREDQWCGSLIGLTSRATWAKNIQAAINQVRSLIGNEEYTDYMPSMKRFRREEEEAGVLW
# Sequence of FAD-linked sulfhydryl oxidase ALR (P55789 whole entry): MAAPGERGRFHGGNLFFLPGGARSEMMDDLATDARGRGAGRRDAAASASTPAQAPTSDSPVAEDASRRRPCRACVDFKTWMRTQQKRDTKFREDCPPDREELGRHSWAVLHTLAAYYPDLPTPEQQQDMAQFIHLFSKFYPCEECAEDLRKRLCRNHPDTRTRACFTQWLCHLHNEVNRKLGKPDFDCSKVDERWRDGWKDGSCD
# Sequence of Glyceraldehyde-3-phosphate dehydrogenase (P04406 whole entry): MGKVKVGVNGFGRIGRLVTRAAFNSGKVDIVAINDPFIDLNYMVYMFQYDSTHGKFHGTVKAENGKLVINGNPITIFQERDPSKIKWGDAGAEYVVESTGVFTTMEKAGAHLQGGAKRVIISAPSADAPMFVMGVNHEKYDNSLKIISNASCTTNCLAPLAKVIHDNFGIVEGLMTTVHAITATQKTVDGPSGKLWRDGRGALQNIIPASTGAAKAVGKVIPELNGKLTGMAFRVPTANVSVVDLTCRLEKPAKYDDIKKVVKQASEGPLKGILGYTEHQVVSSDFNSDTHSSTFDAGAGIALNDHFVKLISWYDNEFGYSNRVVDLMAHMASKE
smiles,measurement,setting,value
CC(=O)n1cc(C=C2C(=O)NC(=O)NC2=O)c2ccccc21,IC50,Genome polyprotein,42.8 µM (active)
O=C(Nc1ccccc1C(F)(F)F)N1CCN(c2ccc3nnc(-c4ccc(F)cc4)n3n2)CC1,CC50,Vero,> 25 µM (active)
C=CCn1c(SCC(=O)c2[nH]c(C)c(C(=O)OCC)c2C)nc2scc(-c3ccc(OC)c(OC)c3)c2c1=O,EC50,[1],7.26 µM (active)
same,AC50,INS1,3.37 µM (active)
same,EC50,[2],6.55 µM (active)
same,AC50,[3],2.05 µM (active)
COc1cc(OC)c(NC(=O)C(=O)CC(=O)c2ccc(C)cc2C)cc1Cl,CC50,Vero,9.4 µM (active)
Cc1ccc(-n2nnnc2Sc2ccc(S(=O)(=O)NCCN(C)C)cc2[N+](=O)[O-])cc1,EC50,[1],2.05 µM (active)
same,EC50,[2],2.26 µM (active)
same,AC50,[3],2.59 µM (active)
Cc1ccc(-c2[nH]c3ccccc3c2SCCNC(=O)c2ccc(S(=O)(=O)N3CCOCC3)cc2)cc1,EC50,[1],152 µM (active)
same,EC50,[2],112 µM (active)
COc1ccccc1N1CCN(S(=O)(=O)c2ccccc2)CC1,AC50,[4],7.31 µM (active)
O=C(/C=C/c1ccc([N+](=O)[O-])cc1)/C=C/c1ccco1,CC50,[5],100 µM (active)
O=C(O)CCC(=O)Nc1ccc(O)c(C(=O)O)c1,IC50,[6],> 100 µM (not active)
O=C(CSc1nc2ccccc2s1)NO,IC50,[6],> 100 µM (not active)
COc1cccc(/C=C2/C(=O)NN(c3ccccc3)C2=O)c1,IC50,Genome polyprotein,45.8 µM (active)
CN1C(=O)/C(=C2\SC(N)=NC2=O)c2ccccc21,EC50,[1],44.1 µM (active)
same,EC50,[2],33.2 µM (active)
CN1CCCC(OC(=O)c2ccc3c(c2)OCCO3)C1 (stereo unspecified),IC50,Estrogen receptor beta,> 50 µM (not active)
Nc1ccc(C(=O)Nc2cccc(N)c2)cc1,AC50,[4],1.96 µM (active)
